# Activity calls are given as the source filed them.
# How the values were obtained:
# [1] = decrease of insulin promoter-GFP reporter – imaging, high-content screening, mouse beta cells (AID 1628); format: functional; details: MIN6
# [2] = MIN6 cell viability loss – mouse insulinoma, cytotoxicity control, dose response (AID 2122); format: functional;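 further: confirmatory high-throughput counterscreen run to flag cytotoxic compounds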
# INS1 = experiment: INS-1E survival protection against cytokine death – cell-based, luminescence, retest, dose response (AID 449756); format: functional; details: Rattus norvegicus;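 further: cell death triggered by IL-1 beta plus TNF-alpha plus IFN-gamma mixture; protective hits raise ATP signal compared with cytokine alone wells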
# [3] = molecular target: T1, Histone-lysine N-methyltransferase NSD2 (Homo sapiens, UniProt O96028); format: biochemical
# T1 sequence (O96028 whole entry): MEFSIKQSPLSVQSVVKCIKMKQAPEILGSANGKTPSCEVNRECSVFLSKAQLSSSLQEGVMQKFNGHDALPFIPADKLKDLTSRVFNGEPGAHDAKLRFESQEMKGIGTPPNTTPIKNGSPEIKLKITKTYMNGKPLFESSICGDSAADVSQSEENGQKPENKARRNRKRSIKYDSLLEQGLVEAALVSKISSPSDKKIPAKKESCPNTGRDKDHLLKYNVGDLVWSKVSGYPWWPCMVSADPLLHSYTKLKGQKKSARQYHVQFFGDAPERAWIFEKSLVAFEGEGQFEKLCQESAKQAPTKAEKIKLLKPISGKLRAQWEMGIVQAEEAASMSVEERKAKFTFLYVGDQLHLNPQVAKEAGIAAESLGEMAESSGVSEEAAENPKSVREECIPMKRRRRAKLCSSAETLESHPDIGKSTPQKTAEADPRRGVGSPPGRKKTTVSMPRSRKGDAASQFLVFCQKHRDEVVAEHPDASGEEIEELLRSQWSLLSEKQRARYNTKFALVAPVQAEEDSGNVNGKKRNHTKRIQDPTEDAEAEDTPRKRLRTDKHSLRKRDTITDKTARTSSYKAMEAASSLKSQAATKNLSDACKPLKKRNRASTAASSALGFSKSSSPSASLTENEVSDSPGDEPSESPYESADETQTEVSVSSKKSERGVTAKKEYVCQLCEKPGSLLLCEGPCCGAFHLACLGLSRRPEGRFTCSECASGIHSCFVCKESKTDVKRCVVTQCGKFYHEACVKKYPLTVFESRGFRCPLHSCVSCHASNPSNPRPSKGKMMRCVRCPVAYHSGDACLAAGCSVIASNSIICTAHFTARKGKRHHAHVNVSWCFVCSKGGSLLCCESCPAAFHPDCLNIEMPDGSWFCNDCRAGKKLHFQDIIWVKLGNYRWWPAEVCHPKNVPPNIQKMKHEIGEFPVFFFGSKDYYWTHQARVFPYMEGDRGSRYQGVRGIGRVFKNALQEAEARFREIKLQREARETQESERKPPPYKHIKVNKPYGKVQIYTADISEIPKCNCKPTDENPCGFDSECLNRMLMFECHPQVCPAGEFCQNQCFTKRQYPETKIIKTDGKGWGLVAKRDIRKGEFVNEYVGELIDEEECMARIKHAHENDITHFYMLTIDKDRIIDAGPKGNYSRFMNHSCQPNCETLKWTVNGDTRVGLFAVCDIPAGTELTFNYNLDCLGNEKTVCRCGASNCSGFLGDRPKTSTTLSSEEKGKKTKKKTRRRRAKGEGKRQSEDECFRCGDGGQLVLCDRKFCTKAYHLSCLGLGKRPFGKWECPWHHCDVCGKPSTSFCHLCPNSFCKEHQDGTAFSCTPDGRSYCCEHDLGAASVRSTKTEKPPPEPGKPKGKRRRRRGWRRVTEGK
# [4] = molecular target: T2, Adenosylmethionine-8-amino-7-oxononanoate aminotransferase (Mycobacterium tuberculosis, UniProt P9WQ81); experiment: Mycobacterium tuberculosis BioA enzyme inhibitor Measured in Biochemical System Using Plate Reader - 2163-02_Inhibitor_Dose_CherryPick_Activity.; format: functional, Mycobacterium tuberculosis UT205
# T2 sequence (P9WQ81 whole entry): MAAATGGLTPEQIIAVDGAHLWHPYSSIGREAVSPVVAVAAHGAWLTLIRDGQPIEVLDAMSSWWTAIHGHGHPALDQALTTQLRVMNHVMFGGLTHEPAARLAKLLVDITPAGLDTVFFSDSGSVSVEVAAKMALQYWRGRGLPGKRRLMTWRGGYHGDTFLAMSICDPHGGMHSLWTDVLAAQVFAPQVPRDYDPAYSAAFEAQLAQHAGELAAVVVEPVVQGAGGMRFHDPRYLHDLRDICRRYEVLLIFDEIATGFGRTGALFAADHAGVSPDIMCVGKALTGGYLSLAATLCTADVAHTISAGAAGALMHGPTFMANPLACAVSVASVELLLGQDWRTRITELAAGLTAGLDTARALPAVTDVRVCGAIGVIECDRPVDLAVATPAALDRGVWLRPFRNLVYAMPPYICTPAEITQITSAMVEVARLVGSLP
# Vero [5] = experiment: viability of Vero cells under compound – cytotoxicity control for flavivirus capping enzyme inhibitors (AID 588742); format: functional; details: Chlorocebus sabaeus
# [6] = molecular target: T3, Small ubiquitin-related modifier 1 (Homo sapiens, UniProt P63165); experiment: SUMO1 protein interaction blockers, potency – biochemical, fluorescence polarization, uHTS hits, dose response (AID 624382); format: functional; details: read-out: IC50_Mean
# [7] = molecular target: T3, Small ubiquitin-related modifier 1; experiment: SUMO1 protein-protein binding blockers, potency – biochemical, FRET, dose response (AID 624383); format: functional; details: read-out: IC50_Mean
# [8] = molecular target: T4, Endoribonuclease toxin MazF (Escherichia coli K-12, UniProt P0AE70); experiment: activation of MazEF endoribonuclease cleavage – biochemical, fluorescence, single-stranded RNA substrate, uHTS hits, dose response (AID 588481); format: functional
# T4 sequence (P0AE70 whole entry): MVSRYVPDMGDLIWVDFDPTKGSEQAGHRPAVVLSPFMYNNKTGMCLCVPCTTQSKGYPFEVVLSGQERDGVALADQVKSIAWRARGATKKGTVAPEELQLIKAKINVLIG
# [9] = molecular target: T4, Endoribonuclease toxin MazF; experiment: substrate-only fluorescence increase artefacts – biochemical, single-stranded RNase substrate, counter-screen for MazEF activator project, dose response (AID 588502); format: functional
# Protein Wnt-3a = Protein Wnt-3a (Mus musculus, UniProt P27467); experiment: antagonism of Wnt3a pathway luciferase reporter – Wnt-LIGHT cells, luminescence, selectivity assay for Gli-SUFU antagonist project, dose response (AID 651570); format: functional; details: read-out: IC50_Mean;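 further: Wnt-LIGHT reporter cells stimulated with conditioned medium from Wnt3a-producing cells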
# Melanocortin receptor 4 = Melanocortin receptor 4 (Homo sapiens, UniProt P32245); format: functional, cell-based;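 further: Cell-based assay with luminescence read-out, confirmatory dose-response testing for agonist activity of biased ligands at MC4R; human U2OS cells with tagged receptor and beta-arrestin; potency of agonists that increase receptor coupling to beta-arrestin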
# [10] = luciferase reporter signal suppression in cells – H4 neuroglioma cells, luminescence, dose response (AID 1990); format: functional, cell-based
# [11] = Luminescence Cell-Based Dose Response HTS to Identify Inhibitors of 5'UTR Stem-Loop Driven Prion Protein mRNA Translation in H4 Neuroglioblastoma Cells. [Related pubchem assays: 1827 (Project Summary), 1813 (Primary HTS)]; format: functional
# [12] = alpha-synuclein stem-loop luciferase translation blockers – H4 neuroglioma cells, luminescence, confirmation (AID 1988); format: functional, cell-based
# [13] = Luminescence Cell-Based Dose Retest to Confirm Inhibitors of Cancer Stem Cells. [Related pubchem assays (depositor defined):AID2717, AID2721]; format: functional; details: Homo sapiens
# [14] = viability loss in HeLa cells – cytotoxicity control for MgcRacGAP inhibitor project, dose response (AID 624300); format: functional
# [15] = molecular target: T5, Rac GTPase-activating protein 1 (Homo sapiens, UniProt Q9H0H5); experiment: blockers of MgcRacGAP-driven Rac1 GTP hydrolysis – biochemical, ADP Hunter fluorescence, primary and confirmatory, confirmation (AID 624330); format: functional
# T5 sequence (Q9H0H5 whole entry): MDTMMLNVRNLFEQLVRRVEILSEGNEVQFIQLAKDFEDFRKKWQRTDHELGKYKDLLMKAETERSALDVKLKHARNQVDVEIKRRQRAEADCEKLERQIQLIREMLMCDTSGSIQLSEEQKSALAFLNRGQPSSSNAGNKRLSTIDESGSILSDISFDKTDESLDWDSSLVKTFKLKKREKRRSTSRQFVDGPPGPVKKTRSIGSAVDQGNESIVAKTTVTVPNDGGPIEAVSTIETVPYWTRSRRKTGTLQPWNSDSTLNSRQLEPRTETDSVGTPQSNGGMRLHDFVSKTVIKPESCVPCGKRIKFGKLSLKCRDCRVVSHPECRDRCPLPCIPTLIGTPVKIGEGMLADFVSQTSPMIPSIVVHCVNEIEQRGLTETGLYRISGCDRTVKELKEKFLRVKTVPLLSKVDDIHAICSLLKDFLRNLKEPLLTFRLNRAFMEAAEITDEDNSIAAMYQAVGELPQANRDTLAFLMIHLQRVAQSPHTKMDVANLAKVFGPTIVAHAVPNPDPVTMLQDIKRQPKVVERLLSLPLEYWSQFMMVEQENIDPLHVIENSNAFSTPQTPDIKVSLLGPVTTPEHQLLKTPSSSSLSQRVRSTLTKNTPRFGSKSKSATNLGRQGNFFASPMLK
# [16] = molecular target: T6, Probable nicotinate-nucleotide adenylyltransferase (Staphylococcus aureus (strain N315), UniProt P65502); format: functional, Staphylococcus aureus subsp. aureus N315;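 on IC50 Mean: confirmatory dose-response retesting of NadD inhibitor hits first found in an ultra-high-throughput screen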
# [17] = molecular target: T6, Probable nicotinate-nucleotide adenylyltransferase; format: functional, Staphylococcus aureus subsp. aureus N315; details: read-out: IC50_Mean
# [18] = viability of uninfected HEp-2 cells – cell-based, HTS, cytotoxicity control for RSV inhibitor project, dose response (AID 2410); format: functional; details: human respiratory syncytial virus
# [19] = microbe, parasite or virus in culture; format: functional; details: Mycobacterium tuberculosis
# [20] = molecular target: Photoreceptor-specific nuclear receptor (Homo sapiens, UniProt Q9Y5X4); format: functional, cell-based;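 further: CHO-S cells with Gal4-NCOR and VP16-NR2E3 two-hybrid luciferase reporter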
# Genome polyprotein = Genome polyprotein (dengue virus type 2, UniProt P29990); experiment: flavivirus cap methylation enzyme inhibition – biochemical, confirmation dose response, primary screen (AID 588689); format: functional
# [21] = molecular target: Glucose-6-phosphate 1-dehydrogenase (Homo sapiens, UniProt P11413); experiment: inhibition of Homo sapiens G6PD, dose series – biochemical, fluorescence, selectivity assay for P. falciparum G6PD inhibitor project, dose response (AID 504792); format: functional
# Vero [22] = experiment: cells; format: functional; details: Chlorocebus sabaeus
# [23] = molecular target: T7, Low molecular weight phosphotyrosine protein phosphatase (Homo sapiens, UniProt P24666); format: functional; details: read-out: IC50_Mean;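 further: Dose-response confirmation assay measuring inhibition of LMPTP enzyme activity by fluorescence intensity read-out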
# T7 sequence (P24666 whole entry): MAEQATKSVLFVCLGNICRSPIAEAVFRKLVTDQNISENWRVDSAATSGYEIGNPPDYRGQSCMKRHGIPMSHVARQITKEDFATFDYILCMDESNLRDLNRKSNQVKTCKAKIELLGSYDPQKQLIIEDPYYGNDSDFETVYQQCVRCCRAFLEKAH
# T3 sequence (P63165 whole entry): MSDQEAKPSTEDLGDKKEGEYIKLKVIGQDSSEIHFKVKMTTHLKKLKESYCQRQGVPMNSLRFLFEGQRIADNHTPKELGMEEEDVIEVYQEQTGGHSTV
# Protein Wnt-3a, sequence (P27467 whole entry): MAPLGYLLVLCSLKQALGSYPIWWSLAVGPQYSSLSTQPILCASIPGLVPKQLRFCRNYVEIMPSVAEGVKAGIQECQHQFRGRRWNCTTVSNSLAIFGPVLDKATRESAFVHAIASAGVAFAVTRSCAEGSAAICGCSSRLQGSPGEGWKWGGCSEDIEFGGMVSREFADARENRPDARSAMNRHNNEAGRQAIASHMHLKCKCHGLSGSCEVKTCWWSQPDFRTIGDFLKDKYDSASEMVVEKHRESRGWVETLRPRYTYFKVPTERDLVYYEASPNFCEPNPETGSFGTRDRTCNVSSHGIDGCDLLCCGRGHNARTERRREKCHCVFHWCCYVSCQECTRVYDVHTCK
# T6 sequence (P65502 whole entry): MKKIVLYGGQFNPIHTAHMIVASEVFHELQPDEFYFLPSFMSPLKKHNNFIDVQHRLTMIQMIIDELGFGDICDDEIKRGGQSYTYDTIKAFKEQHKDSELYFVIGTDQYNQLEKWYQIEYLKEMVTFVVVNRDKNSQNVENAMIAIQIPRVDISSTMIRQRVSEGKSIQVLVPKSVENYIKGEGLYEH
# Melanocortin receptor 4, sequence (P32245 whole entry): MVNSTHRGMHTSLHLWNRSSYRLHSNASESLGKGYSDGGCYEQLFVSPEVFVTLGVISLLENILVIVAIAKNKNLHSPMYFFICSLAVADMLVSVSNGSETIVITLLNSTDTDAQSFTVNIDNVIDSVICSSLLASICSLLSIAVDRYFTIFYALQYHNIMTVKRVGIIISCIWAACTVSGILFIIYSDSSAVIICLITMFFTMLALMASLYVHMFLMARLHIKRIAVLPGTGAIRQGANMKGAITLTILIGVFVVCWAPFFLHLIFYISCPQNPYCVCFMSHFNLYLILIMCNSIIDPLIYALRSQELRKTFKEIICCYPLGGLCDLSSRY
# Photoreceptor-specific nuclear receptor, sequence (Q9Y5X4 whole entry, the tested form may be a part): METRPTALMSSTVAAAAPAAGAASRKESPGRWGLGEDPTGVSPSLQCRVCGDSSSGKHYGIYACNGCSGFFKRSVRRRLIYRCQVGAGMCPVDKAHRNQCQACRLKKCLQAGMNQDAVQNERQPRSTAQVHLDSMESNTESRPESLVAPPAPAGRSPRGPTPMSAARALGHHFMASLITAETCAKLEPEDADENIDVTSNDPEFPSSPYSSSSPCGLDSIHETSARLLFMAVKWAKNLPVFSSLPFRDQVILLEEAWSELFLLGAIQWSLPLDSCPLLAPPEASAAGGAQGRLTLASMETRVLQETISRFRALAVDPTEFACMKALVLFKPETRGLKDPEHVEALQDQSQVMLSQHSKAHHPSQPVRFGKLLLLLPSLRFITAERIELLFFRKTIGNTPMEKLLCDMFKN
# Genome polyprotein, sequence (P29990 2492-3391 limits assumed): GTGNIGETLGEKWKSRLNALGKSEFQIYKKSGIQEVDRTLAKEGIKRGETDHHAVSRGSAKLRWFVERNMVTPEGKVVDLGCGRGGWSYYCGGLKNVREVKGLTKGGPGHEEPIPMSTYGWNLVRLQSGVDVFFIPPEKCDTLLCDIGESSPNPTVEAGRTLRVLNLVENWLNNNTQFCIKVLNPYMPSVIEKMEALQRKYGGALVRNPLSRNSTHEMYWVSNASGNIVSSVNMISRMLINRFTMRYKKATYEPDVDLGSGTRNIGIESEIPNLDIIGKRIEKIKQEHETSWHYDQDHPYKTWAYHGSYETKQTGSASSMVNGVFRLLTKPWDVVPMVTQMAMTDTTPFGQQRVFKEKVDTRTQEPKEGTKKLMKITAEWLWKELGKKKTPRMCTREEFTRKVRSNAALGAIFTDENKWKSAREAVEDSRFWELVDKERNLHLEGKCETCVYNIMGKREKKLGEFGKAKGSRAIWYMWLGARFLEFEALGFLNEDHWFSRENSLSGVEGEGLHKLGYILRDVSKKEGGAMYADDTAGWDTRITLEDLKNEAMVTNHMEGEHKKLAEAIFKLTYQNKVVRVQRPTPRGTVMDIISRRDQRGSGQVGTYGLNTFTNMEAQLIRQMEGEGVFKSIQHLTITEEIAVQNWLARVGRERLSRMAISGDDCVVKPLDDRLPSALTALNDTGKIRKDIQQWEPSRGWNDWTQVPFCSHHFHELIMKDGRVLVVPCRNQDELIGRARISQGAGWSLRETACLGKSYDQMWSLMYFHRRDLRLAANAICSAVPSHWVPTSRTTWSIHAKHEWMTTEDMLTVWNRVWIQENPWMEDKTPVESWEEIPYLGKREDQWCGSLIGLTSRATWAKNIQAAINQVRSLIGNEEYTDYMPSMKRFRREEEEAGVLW
# Glucose-6-phosphate 1-dehydrogenase, sequence (P11413 whole entry): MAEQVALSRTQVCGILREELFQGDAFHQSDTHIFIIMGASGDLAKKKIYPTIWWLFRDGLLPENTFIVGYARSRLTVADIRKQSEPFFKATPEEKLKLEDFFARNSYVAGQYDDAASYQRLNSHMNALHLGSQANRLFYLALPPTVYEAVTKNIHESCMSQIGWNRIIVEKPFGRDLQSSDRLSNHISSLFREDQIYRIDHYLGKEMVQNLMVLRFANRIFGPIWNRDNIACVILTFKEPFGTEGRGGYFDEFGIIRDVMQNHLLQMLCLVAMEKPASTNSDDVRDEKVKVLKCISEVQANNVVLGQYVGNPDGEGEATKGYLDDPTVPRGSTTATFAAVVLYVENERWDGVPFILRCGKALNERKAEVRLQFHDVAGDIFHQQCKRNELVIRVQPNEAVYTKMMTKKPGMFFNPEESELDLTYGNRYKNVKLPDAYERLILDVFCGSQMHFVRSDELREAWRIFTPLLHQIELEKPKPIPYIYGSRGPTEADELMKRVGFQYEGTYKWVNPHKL
smiles,measurement,setting,value
CN1/C(=C\C(=O)COC(=O)c2ccc(O)c(O)c2)C(C)(C)c2ccccc21,IC50,[1],0.784 µM (active)
same,IC50,[2],0.454 µM (active)
same,AC50,INS1,6.68 µM (active)
same,AC50,[3],> 20 µM (inactive)
CC(=O)N1CCN(c2ccc([N+](=O)[O-])cc2C=C2C(=O)NC(=O)NC2=O)CC1,AC50,[4],8.51 µM (active)
C=CCn1c(=S)[nH]c2scc(-c3ccc(C)o3)c2c1=O,CC50,Vero [5],37.2 µM (active)
Cc1[nH]c2ccc(C(=O)OCC(=O)Nc3cccc(S(N)(=O)=O)c3)cc2c1C,IC50,[6],> 66.6 µM (inactive)
same,IC50,[7],0.624 µM (active)
CCOC(=O)CSc1nc2cc(OC)ccc2cc1C#N,EC50,[8],> 99 µM (inactive)
same,EC50,[9],> 99 µM (inactive)
COc1ccccc1CN(Cc1nc(O)c2ccccc2n1)S(=O)(=O)c1ccc(C)cc1,IC50,Protein Wnt-3a,32.7 µM (inactive)
COc1ccc(NC(=O)Nc2nnc(-c3ccccc3SCc3ccccc3)s2)cc1,EC50,Melanocortin receptor 4,> 89.2 µM (inactive)
O=S(=O)(c1ccc2c(c1)nc(COc1ccc(Cl)cc1)n2CC1CCCO1)N1CCOCC1 (stereo not given),EC50,[10],19.6 µM (active)
same,EC50,[11],> 120 µM (not active)
same,EC50,[12],15.8 µM (active)
same,IC50,Protein Wnt-3a,4.1 µM (active)
COc1ccc(-c2csc(C3=C(N)N(Cc4ccc(Cl)cc4)CC3=O)n2)cc1OC,EC50,[10],> 120 µM (not active)
same,EC50,[11],32.9 µM (active)
same,EC50,[12],85.3 µM (active)
same,EC50,Melanocortin receptor 4,> 89.2 µM (inactive)
CC(C)(C)c1cc(Cl)ccc1OCCOCCN1CCCC1,AC50,[13],6.93 µM (active)
same,CC50,[14],67.4 µM (active)
same,IC50,[15],104 µM (active)
COC(=O)C1=C(COc2ccccc2)NC(=O)NC1c1ccc(Br)cc1 (stereo not given),IC50,[6],> 66.6 µM (inactive)
same,IC50,[7],15.2 µM (active)
Cc1ccc2[nH]c(=O)c(CN(CCc3ccccc3)C(c3nnnn3Cc3ccco3)C(C)C)cc2c1 (stereo not given),IC50,[16],12.1 µM (active)
same,IC50,[17],20 µM (active)
Cc1n[nH]c(O)c1C(c1ccc(-c2ccc(Cl)c(Cl)c2)o1)c1c(C)n[nH]c1O,CC50,[18],15.2 µM (active)
same,CC50,[19],28.1 µM (active)
same,CC50,Vero [5],20.8 µM (active)
COc1ccc(NC2c3ccccc3C(=O)N2Cc2ccccc2Cl)cc1OC (stereo not given),IC50,[20],1.5 µM (active)
Cc1nc(=O)c(-c2ccccc2)c(C)n1-c1ccc(Br)cc1,AC50,[4],15.6 µM (active)
O=C(OC(c1ccccc1)c1nccc2ccccc12)c1ccccc1 (stereo not given),IC50,[20],36.1 µM (inactive)
CCCCC[C@@H]1C=C(C(=O)O)[C@H](c2ccc(Cl)cc2)N1S(=O)(=O)c1ccc(C)cc1,CC50,Vero [5],> 40 µM (active)
same,IC50,Genome polyprotein,42.3 µM (active)
O=C(N[C@H]1C/C=C\C[C@@H](CC(=O)N(CCO)Cc2ccccc2)C(=O)N[C@H](Cc2c[nH]c3ccccc23)COC1=O)OCC1c2ccccc2-c2ccccc21,IC50,Protein Wnt-3a,17.8 µM (active)
CN(C)c1nc(=NCc2cccs2)ss1,IC50,[21],> 80 µM (inactive)
same,CC50,Vero [22],19 µM (active)
same,CC50,[14],100 µM (active)
same,IC50,[15],134 µM (active)
C#Cc1ccc([C@H]2C=C(C(=O)NCc3nc4ccccc4[nH]3)O[C@@H](OCc3ccc(CO)cc3)C2)cc1,IC50,[16],10.5 µM (active)
same,IC50,[17],20.7 µM (active)
COc1cc(NC(=O)Nc2nc(C(N)Cc3ccc(C(F)(F)F)cc3)cs2)cc(OC)c1OC (stereo not given),EC50,Melanocortin receptor 4,> 89.2 µM (inactive)
COc1ccc(-c2cc(C(=O)Nc3cc(Cl)ccc3O)no2)cc1,IC50,[23],2.91 µM (active)
CC(=O)O[C@]1(C(C)=O)CC[C@H]2[C@@H]3C=C(C)C4=CC(=O)CC[C@]4(C)[C@H]3CC[C@@]21C [MEGESTROL ACETATE],AC50,[4],11 µM (active)
